The target in one data set is M2 receptor (Homo sapiens (Human), UniProt P08172). Put plainly: M2 receptor affinity test (3H-NMS competition). The class given is binding. The settings on record: M2 receptor membrane protein, 0.2 nM 3H-NMS. As to the method:
M2 receptor is a G protein-coupled receptor. In this experiment, the activity of test compound against the M2 receptor in vitro was assayed by the competition of radioisotope labeled NMS and non-isotope labeled test compound for an M2 binding site.
The M2 receptor membrane protein was prepared at 100 μg/mL by Biology Department of WuXi AppTec, and compound was serially diluted in a 2.5-fold gradient in DMSO to obtain 10 concentrations. Radioisotope 3H-NMS was prepared at 0.2 nM in an assay buffer (10 mM HEPES, 1 mM MgCl2, pH 7.40). In formal testing, the experimental system comprising 1 μL of the test compound, 100 μL of M2 receptor membrane protein and 100 μL of radioisotope was shaken in a shaker at 300 RPM for 2 h at room temperature. A GF/C plate (Perkin Elmer, Cat No. 6055690) was prefoamed with 0.3% PEI, and the membrane proteins in the reaction solution were collected by filtration onto the GF/C plate. The signal values were read by a Perkin Elmer Microbeta2 instrument and the inhibition rate for each concentration point was shown as a percentage.

A short description of data set [1]: Crystal stability under high humidity conditions, TGA after placement. It is filed as physicochemical. Particulars: 24 hours. How it is done: • Instrument model: TA Q5000/5500 Thermal Gravimetric Analyzer • Test method: Taking a sample (about 1 to 5 mg) and placing in a TGA aluminum dish for testing, and heating the sample from room temperature to 350° C. at a heating rate of 10° C./min under 10 mL/min N2 conditions.
The crystal form C of the compound of formula (I) was placed under different humidity conditions at room temperature and then tested by TGA to preliminarily evaluate its water content changes under different humidity conditions.

The nature of data set [2]: Dynamic vapor sorption (DVS) test. The class given is physicochemical. How it is done:
• Instrument model: SMS DVS Advantage Dynamic Vapor Sorption Analyzer • Test conditions: Taking a sample (10 to 15 mg) and placing in a DVS sample dish for testing. • Detailed DVS parameters are as follows: • Temperature: 25° C. • Equilibration: dm/dt=0.01%/min (Minimum: 10 min, Maximum: 180 min) • Drying: drying 120 min under 0% RH • RH (%) test gradient: 10% • RH (%) test gradient range: 0% to 90% to 0%.
At the same time, a DVS test was performed on the crystal form C of the compound of formula (I).

Data set [3] in a line: Crystal stability under 94% RH, XRPD after placement. The class given is physicochemical. Particulars: 94% RH at room temperature for 1 to 2 weeks. As to the method: • Instrument model: X' Pert3. • Method: taking a sample of about 10 to 20 mg for XRPD analysis. • Detailed XRPD parameters are as follows: • X-ray source: Cu, kα (Kα1=1.540598 Δ, Kα2=1.544426 Δ, Kα2/Kα1 intensity ratio: 0.5) • Tube voltage: 45 kV, tube current: 40 mA • Divergence slit: fixed ⅛° • First seller slit: 0.04 rad, Second soller slit: 0.04 rad • Receiving slit: none, Anti-scatter slit: 7.5 mm • Measurement time: 5 min • scan range: 3 to 40° • Step width angle: 0.0263° • Step length: 46.665 seconds • Rotation speed of sample plate: 60 rpm
The crystal form E of the compound of formula (I) was placed under 94% RH at room temperature for 1 to 2 weeks and then subjected to XRPD testing to evaluate its solid stability in the high humidity environment.

Chain of M2 receptor (P08172 whole entry): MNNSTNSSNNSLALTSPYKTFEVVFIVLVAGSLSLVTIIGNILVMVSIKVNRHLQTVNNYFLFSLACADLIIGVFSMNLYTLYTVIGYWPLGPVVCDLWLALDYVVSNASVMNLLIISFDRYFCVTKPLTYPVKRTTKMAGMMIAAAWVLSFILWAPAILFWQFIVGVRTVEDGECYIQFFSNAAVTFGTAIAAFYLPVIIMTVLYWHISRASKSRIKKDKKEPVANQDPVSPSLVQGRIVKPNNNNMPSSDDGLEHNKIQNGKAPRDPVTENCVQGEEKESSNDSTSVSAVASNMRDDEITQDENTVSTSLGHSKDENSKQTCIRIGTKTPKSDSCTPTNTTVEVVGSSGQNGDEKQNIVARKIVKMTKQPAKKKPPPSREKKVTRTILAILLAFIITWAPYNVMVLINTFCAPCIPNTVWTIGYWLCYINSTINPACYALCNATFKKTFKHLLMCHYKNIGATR

As for `CN(CCCn1nnc2cc(CNC[C@H](O)c3ccc(O)c4[nH]c(=O)ccc34)c3c(c21)CCC3)[C@H]1CC[C@H](OC(=O)C(O)(c2cccs2)c2cccs2)CC1` [listing 1 of 3 here], the IC50 – broadly, the midpoint of a concentration-inhibition curve – at M2 receptor turned out to be 0.062 nM.

As to `CN(CCCn1nnc2cc(CNC[C@H](O)c3ccc(O)c4[nH]c(=O)ccc34)c3c(c21)CCC3)[C@H]1CC[C@H](OC(=O)C(O)(c2cccs2)c2cccs2)CC1` [listing 2 of 3 here], the figures for the “TGA weight loss (%, 150° C)” value in data set [1] (~81% RH (saturated potassium bromide solution)/room temperature) and in data set [1] (~94% RH (saturated potassium nitrate solution)/room temperature) were 10.4% and 9.9%, respectively. The moisture adsorption in data set [2] (25° C./80% RH) is given as 7.84%. In addition, the “crystal form after the DVS test (XRPD)” value in data set [2] (XRPD before and after DVS test) is reported as “remained unchanged”.

As for `CN(CCCn1nnc2cc(CNC[C@H](O)c3ccc(O)c4[nH]c(=O)ccc34)c3c(c21)CCC3)[C@H]1CC[C@H](OC(=O)C(O)(c2cccs2)c2cccs2)CC1` [listing 3 of 3 here], in data set [3], the “crystal form after placement (XRPD)” value is “remained unchanged”.

For the origin of these results see patent US20250230148A1, “CRYSTAL OF FUSED TRICYCLIC DERIVATIVE OR PHARMACEUTICALLY ACCEPTABLE SALT THEREOF” (CHIA TAI TIANQING PHARMACEUTICAL GROUP CO., LTD., priority 2022, published 2025).
